In paper PMC11083148, “Structure–Activity Relationship Studies on Highly Functionalized Pyrazole Hydrazones and Amides as Antiproliferative and Antioxidant Agents” (International Journal of Molecular Sciences, 2024):

Key:
[1] = DPPH radical-scavenging activity; assay type: physicochemical; set-up: AA (%), percentage of antioxidant activity: concentration or dose not given beside the values; settings: mean ± SD, n = 2
Experimental: The antioxidant activity of the representative compounds of the two series (namely, acylhydrazones 10b, 11a, 11d, 12d, 13d, and amides 14, 22) was measured in vitro using the 2,2-diphenyl-1-picrylhydrazyl (DPPH) assay. The results were calculated as Trolox equivalent and expressed as a percentage of antioxidant activity (AA) (Table 3). […] Derivatives 10b and 12d were endowed with the highest antioxidant activity, thus highlighting the relevance of both pyrazole N1 and acylhydrazone substituents on compounds’ radical scavenging properties.
Compounds 10b, 11a, 11d, 12d, 13d, 14, and 22 (ca. 3 mg) were dissolved in DMSO (1 mL), and then 100 µL of this solution was mixed with 3.9 mL of DPPH methanol solution (65 µM). Absorbance was measured at 517 nm after reacting for 30 min in the dark. The linear calibration curve was obtained using Trolox standards (ranging between 20 and 200 mg/L, R^2 = 0.9955). The result was calculated as Trolox equivalent in mg/L, and the percentage of antioxidant activity (AA%) was calculated from the ratio of decreasing absorbance of sample solution (A0 − As) to absorbance of blank DPPH solution (A0), as expressed in Equation (1). (1) AA%=A0−As/A0×100
All analyses were carried out in duplicate (n = 2), and values are given as means ± standard deviation (SD).

SR = experiment: NCI screening, Leukemia; assay type: cell-based; settings: 10 µM
Experimental: (§1) In addition, 11a and 17 (representative compounds of the acylhydrazone and amide series) were selected by the National Cancer Institute (NCI, Germantown, MD, USA) and tested at a fixed concentration of 10 µM against a panel of fifty-nine different cancer cell lines, including highly metastatic tumors (Table 2).

K-562 = experiment: NCI screening, Leukemia; assay type: cell-based; settings: K-562, Leukemia; 10 µM
Experimental: as §1

HL-60(TB) = experiment: NCI screening, Leukemia; assay type: cell-based; settings: 10 µM
Experimental: as §1

HCT-15 = experiment: NCI screening, Colon Cancer; assay type: cell-based; settings: HCT-15, Colon Cancer; 10 µM
Experimental: as §1

HCT-116 = experiment: NCI screening, Colon Cancer; assay type: cell-based; settings: HCT-116, Colon Cancer; 10 µM
Experimental: as §1

HT29 = experiment: NCI screening, Colon Cancer; assay type: cell-based; settings: 10 µM
Experimental: as §1

Structure (SMILES) | AA (%), percentage of antioxidant activity [1] [%] | DPPH (%) [1] [%] | Growth Percentage (%) (SR) | Growth Percentage (%) (K-562) | Growth Percentage (%) (HL-60(TB)) | Growth Percentage (%) (HCT-15) | Growth Percentage (%) (HCT-116) | Growth Percentage (%) (HT29)
COc1ccc(/C=N/NC(=O)c2c(N)nn(C)c2Nc2ccccc2)cc1 [11a, (E)-3-amino-N′-(4-methoxybenzylidene)-1-methyl-5-(phenylamino)-1H-pyrazole-4-carbohydrazide] | 25.56 ± 2.44 | 74.44 ± 2.44 |  |  |  |  |  | 
CCOC(=O)c1c(NC(=O)C2CC2)nn(C)c1Nc1ccccc1 [compound 17, Ethyl 3-(cyclopropanecarboxamido)-1-methyl-5-(phenylamino)-1H-pyrazole-4-carboxylate] |  |  | 94.23 | 96.41 | 96.44 | 96.95 | 104.12 | 99.47
